In data set [1] the test system is non-BK native currents in the oocytes. Kind of data set: Non-BK native currents in oocytes (current remaining in presence of IBTX). The class given is cell-based, Xenopus. To be noted: at the tested concentration. As to the method: (§1) The ability of the compound of Formula II to open BK channels and increase whole-cell outward (K^+) BK-mediated currents was assessed under voltage-clamp conditions by determining their ability to increase cloned mammalian (mSlo or hSlo) BK-mediated outward current heterologously expressed in Xenopus oocytes [Butler, A., et al., Science, 261, pp. 221-224 (1993); and Dworetzky, S. I., et al., Mol. Brain Res., 27, pp. 189-193 (1994)]. The two BK constructs employed represent nearly structurally identical homologous proteins, and have proven to be pharmacologically identical in our tests. To isolate BK current from native (background, non-BK) current, the specific and potent BK channel-blocking toxin iberiotoxin (IBTX) [Galvez, A., et al., J. Biol. Chem, 265, pp. 11083-11090 (1990)] was employed at a supramaximal concentration (50 nM). The relative contribution of BK channels current to total outward current was determined by subtraction of the current remaining in the presence of IBTX (non-BK current) from the current profiles obtained in all other experimental conditions (control, drug, and wash). […] The compound of Formula II was shown in at least 5 oocytes at a concentration of 10 μM to increase BK current to 170% of control of IBTX-sensitive current. […]

The test system of data set [2] is focal cerebral ischemia (MCAO) in the Wistar rat. Description: Focal stroke model, permanent MCA/CCA occlusion. The class given is in vivo. To be noted: 0.3 mg/kg intravenously, single bolus two hours after MCAO; vs vehicle-treated control; 24 hours after MCAO. As to the method: To determine the ability of the compounds of the present invention to reduce cell loss resulting from neuronal ischemia, a standard focal cerebral ischemia is induced by permanent occlusion of the left middle cerebral artery (MCA) and common carotid artery (CCA) with one hour occlusion of the right CCA in the Wistar rat. The surgeries are performed using the sub-temporal approach of A. Tamura, et al., J. Cereb. Blood Flow Metab., 1, pp. 53-60, (1981) and its modifications [K. Osborne, et al., J. Neurol Neurosurg. Psychiatry, 50, pp. 402-410 (1987) and S. Menzies, et al., Neurosurgery, 31, pp. 100-107, (1992)].
The compound of Formula II was evaluated in the focal stroke model involving permanent occlusion of the left MCA (MCAO) and CCA (CCAO) and temporary occlusion of the right CCA in the Wistar rat [Gribkoff, et al. Nature Med. 7, pp. 471-477 (2001)]. This procedure results in a reliably large neocortical infarct volume that is measured by means of vital dye exclusion in serial slices through the brain 24 hours after MCAO. In the present test, compounds were administered using an i.v. or i.p. route of administration two hours after occlusion.

For data set [3], the system named is cloned mammalian (mSlo or hSlo) BK channels heterologously expressed in Xenopus oocytes. Description: BK-mediated outward current, two-electrode voltage clamp in Xenopus oocytes. The class given is cell-based. To be noted: 10 μM; at least 5 oocytes. As to the method:
as §1
Background: Two-electrode voltage clamp is typically applied to oocytes expressing channels or transporters.

The conditions of data set [4]: cited from earlier work.
The test system of data set [5] is rat traumatic brain injury (TBI) model. Description: Rat traumatic brain injury (lateral fluid percussion) model, intracranial pressure (ICP) measurement. It is filed as in vivo. To be noted: 0.08 mg/kg. As to the method:
To determine the ability of the compounds of the present invention to decrease the amount of neuronal damage following head injury, a standard model of traumatic brain injury was employed. The rat traumatic brain injury (TBI) model is used to evaluate compounds for effectiveness in reversing or preventing the deleterious effects of a concussion-like injury. In general, rats in this model were anesthetized, a craniotomy is performed (surgical opening of the skull), and then saline was injected into the opening to produce a precise pulse of increased intracranial pressure (commonly called a fluid percussion injury). Animals were administered compound at the specified doses at 15 minutes following trauma. Animals were euthanized 48 hours post TBI.
Moderate diffuse brain injury (defined by McIntosh, et al. Neuroscience, 28:233-44 (1989)) was induced by a fluid-percussion device. The apparatus produces contusion via the rapid injection of a saline pulse [˜2.1 to 2.7 atmospheres of pressure (atm)] at a constant duration (21-23 millisecond) into a closed cranial cavity. The saline pulse results in the brief displacement and deformation of the underlying cortex. This model is thought to mimic the clinical situation where a patient experiences a concussion-like injury characterized by brief neurological and systemic physiological alterations without severe structural damage. The fluid percussion device produces brain injury without directly impacting the brain. Diffuse brain injury is achieved by the release of a weighted (4.8 kg) metal pendulum from a predetermined height (McIntosh, et al 1989) that strikes a cork-covered piston at the end of a Plexiglass cylindrical reservoir filled with isotonic saline. Varying volumes of saline are injected into the closed cranial cavity producing a pulse of increased intracranial pressure (ICP). Varying the height of the pendulum controls the magnitude of the injury.
In an alternate method, the severity of brain damage was assessed by Intracranial Pressure (ICP) measurement at various intervals post fluid percussion up to 24 hours. In brief, prior to the fluid percussion a burr hole was made 1 mm from the sagittal suture, centered over the right parietal cortex 5 mm from lambda, 5 mm from bregma. Following fluid percussion injury, the trauma cap and cranioplastic cement were removed. In order to achieve adequate ICP values, while still under anesthesia, the craniotomy cap was re-inserted in its original location post fluid percussion. Pre-cut sterile foil was also placed over the craniotomy cap. Cranioplastic cement was placed over the foil to seal the brain cavity. To obtain continuous ICP measurements the probe was inserted into the burr hole and fixed by cranioplastic cement, the animal was then sutured (using 3-0) and the rat was placed in a Hopper cage to allow for free movement during the experiment. Next, the ICP transducer was connected to a Codman ICP monitor for continuous ICP measurements up to 24 hrs post-TBI or post-sham injury. During this time the animal had regular access to water and food. At 24 hrs post-TBI the experiment was terminated and animals were euthanatized by sodium pentobarbital overdose (130 mg/kg; i.p.).
These experiments consist of a sham-vehicle group (SV), a TBI-vehicle group (TV), sham-drug treated groups (SD; 0.08 mg/kg compound of Example 14 [dose equivalent of 0.05 mg/kg compound of Formula (S)-II]) and TBI-drug treated groups (TD; 0.08 mg/kg compound of Example 14). Each sham group acted as a control for the corresponding TBI group. All of the animals underwent anesthesia and surgery. In the TBI groups, brain injury was induced using the lateral fluid-percussion model. Drug treatment was initiated at 15 minutes post-TBI or sham-injury. […] Five minutes post injury absolute ICP (raw data) increased 6.8 mmHg units in TV animals compared to SV animals (SV-5.55 vs. TV-12.35). […]

Data set [6] is described as follows: Solubility (qualitative statements). The class given is physicochemical.
The nature of data set [7]: Rat blood levels of compound (S)-II after prodrug administration. To be noted: intravenous bolus, dose equivalent to 1 mg/kg of (S)-II; whole blood; LC/MS/MS; n=3 rats/timepoint. The class given is in vivo, male Sprague-Dawley rats. The method, then:
The compound of Formula (S)-II or a prodrug of Formula I was administered intravenous bolus to male Sprague-Dawley rats (n=3 rats/timepoint) at a target dose equivalent to 1 mg/kg of the compound of Formula (S)-II. At T=0.25, 1 and 2 hours post-dose, whole blood samples were collected and extracted with acetonitrile. Blood extracts were analyzed by LC/MS/MS for levels of the compound of Formula (S)-II.

Regarding `COc1ccc(Cl)cc1C1(F)C(=O)Nc2cc(C(F)(F)F)ccc21` (racemic) [compound of Formula II, 3-(5-chloro-2-methoxyphenyl)-1,3-dihydro-3-fluoro-6-(trifluoromethyl)-2H-indol-2-one], the “effect on non-BK native currents in the oocytes” value in data set [1] was “did not effect non-BK native currents”. Moreover, the “reduction of cortical infarct volume” value in data set [2] was “about 28%”. In data set [3], the “BK current, % of control of IBTX-sensitive current” value is recorded as 170 % of control.

For the molecule `COc1ccc(Cl)cc1[C@]1(F)C(=O)Nc2cc(C(F)(F)F)ccc21` [Compound of Formula (S)-II, (3S)-(+)-(5-chloro-2-methoxyphenyl)-1,3-dihydro-3-fluoro-6-(trifluoromethyl)-2H-indol-2-one], the aqueous solubility result in data set [4] was “low aqueous solubility”.

Consider `COc1ccc(Cl)cc1[C@]1(F)C(=O)N(COP(=O)([O-])[O-])c2cc(C(F)(F)F)ccc21.[K+].[K+]` [Example 14, (S)-Phosphoric acid mono-[3-(5-chloro-2-methoxy-phenyl)-3-fluoro-2-oxo-6-trifluoromethyl-2,3-dihydro-indol-1-ylmethyl] ester, potassium salt], for which the “intra-animal mean ICP reduction, TD” value in data set [5] (30 minutes post injury) was −2.85 mmHg; in data set [5] (45 minutes post injury), −3.95 mmHg; in data set [5] (60 min post injury) it was −4.5 mmHg; in data set [5] (2 hours post injury), −4.3 mmHg; in data set [5] (3 hr post injury), −4.3 mmHg; in data set [5] (4 hours post injury) it was −4.15 mmHg. Also, the “intra-animal mean ICP reduction, TD” value in data set [5] (24 hours post injury) is −3.05 mmHg. In addition, the “absolute ICP, TD vs TV, significance” value in data set [5] (45 minutes, 60 minutes, 2, 3, 4 and 24 hours post-TBI) is reported as “significantly different from TV”. In addition, in data set [5] (60 minutes post injury (45 minutes post-drug injection)), the “reduction of absolute ICP, TD vs TV” value came to 3.1 mmHg units. The “intra-animal mean ICP reduction, sham-drug group (SD)” value in data set [5] (4 hours post-sham injury) is on record as −2.1 mmHg. Besides, in data set [5] (sham injury, until 4 hours post-sham injury), the “ICP, SD vs SV, significance” value is on record as “did not significantly differ from SV”.

With `COc1ccc(Cl)cc1[C@]1(F)C(=O)N(COP(=O)([O-])[O-])c2cc(C(F)(F)F)ccc21.[Mg+2]` [Example 18, (S)-Phosphoric acid mono-[3-(5-chloro-2-methoxy-phenyl)-3-fluoro-2-oxo-6-trifluoromethyl-2,3-dihydro-indol-1-ylmethyl] ester, magnesium salt], the solubility in water entry in data set [6] is given as “marginally soluble in water”. Further, in data set [6] (relative to water), the “solubility in organic solvents” value is reported as “more soluble in organic solvents”.

Consider “(S)-Phosphoric acid mono-[3-(5-chloro-2-methoxy-phenyl)-3-fluoro-2-oxo-6-trifluoromethyl-2,3-dihydro-indol-1-ylmethyl] ester, mono tetrabutylammonium salt [Example 2]”, for which the “Truncated Blood AUC(0.25-2 hr) Compound of Formula (S)-II” value in data set [7] came out at 188 ng·h/mL.
